Data as given in US10294202B2, “Pyrrolidinones as herbicides” (FMC Corporation, priority 2013, dated 2019).

Assays:
barnyardgrass [1] = experiment: Test A pre-/postemergence herbicide test; format: in vivo, Echinochloa crus-galli; settings: 1000 g ai/ha, 0 to 100 scale (0 no effect, 100 complete control)
Procedure, shortened: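 Directed soil spray to seeded pots (preemergence) or spray onto one- to two-leaf seedlings 2–10 cm tall (postemergence); loam/sand substrate throughout. Evaluated visually after about 10 days against untreated plants, 0 = no effect, 100 = complete control.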

rice = experiment: Test B flooded paddy test; format: in vivo, Oryza sativa; settings: 1000 g ai/ha, Flood; scale of 0 to 100 where 0 is no effect and 100 is complete control
Procedure, shortened: (§1)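 In-water application to pots flooded 3 cm deep, plants at 2-leaf stage. Held in greenhouse 13–15 days at constant flood depth. Scored 0–100 by eye against controls.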

barnyardgrass [2] = experiment: Test B flooded paddy test; format: in vivo, Echinochloa crus-galli; settings: 1000 g ai/ha, Flood; scale of 0 to 100 where 0 is no effect and 100 is complete control
Procedure, shortened: as §1

blackgrass = experiment: Test C pre-/postemergence herbicide test; format: in vivo, Alopecurus myosuroides; settings: Postemergence
Procedure, shortened: (§2)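 Two application timings ran in parallel with identically formulated test chemicals (non-phytotoxic solvent, surfactant included): spray on seeded loam–sand soil, and spray on emerged plants 2 to 18 cm high. Evaluation at 13 to 15 days compared each species with controls, rated from 0 up to 100.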

galium = experiment: Test C pre-/postemergence herbicide test; format: in vivo, Galium aparine; settings: Postemergence
Procedure, shortened: as §2

corn = experiment: Test C pre-/postemergence herbicide test; format: in vivo, Zea mays; settings: Postemergence
Procedure, shortened: as §2

crabgrass, large = experiment: Test C pre-/postemergence herbicide test; format: in vivo, Digitaria sanguinalis; settings: Postemergence
Procedure, shortened: as §2

foxtail, giant = experiment: Test C pre-/postemergence herbicide test; format: in vivo, Setaria faberii; settings: Postemergence
Procedure, shortened: as §2

lambsquarters = experiment: Test C pre-/postemergence herbicide test; format: in vivo, Chenopodium album; settings: Postemergence
Procedure, shortened: as §2

pigweed = experiment: Test C pre-/postemergence herbicide test; format: in vivo, Amaranthus retroflexus; settings: Postemergence
Procedure, shortened: as §2

velvetleaf = experiment: Test C pre-/postemergence herbicide test; format: in vivo, Abutilon theophrasti; settings: Postemergence
Procedure, shortened: as §2

[3] = 31 g ai/ha, scale 0 (no effect) to 100 (complete control)
[4] = 62 g ai/ha, scale 0 to 100 (0 no effect, 100 complete control)
[5] = 125 g ai/ha, scale 0 to 100 (0 no effect, 100 complete control)
[6] = 250 g ai/ha, scale 0 to 100 (0 no effect, 100 complete control)

Compound: Cc1c(F)cccc1NC(=O)C1C(=O)NCC1c1ccc(F)c(F)c1 (racemic) [Compound 106]
- Plant response rating, Barnyardgrass (barnyardgrass [1]; Postemergence): 90
- Plant response rating, Barnyardgrass (barnyardgrass [1]; preemergence): 90
- Plant response rating, Rice (rice): 15
- Plant response rating, Barnyardgrass (barnyardgrass [2]): 60
- Plant response rating, Blackgrass (blackgrass; [3]): 0
- Plant response rating, Blackgrass (blackgrass; [4]): 0
- Plant response rating, Blackgrass (blackgrass; [5]): 0
- Plant response rating, Blackgrass (blackgrass; [6]): 0
- Plant response rating, Galium (galium; [3]): 0
- Plant response rating, Galium (galium; [4]): 0
- Plant response rating, Galium (galium; [5]): 50
- Plant response rating, Galium (galium; [6]): 35
- Plant response rating, Corn (corn; [3]): 0
- Plant response rating, Corn (corn; [4]): 0
- Plant response rating, Corn (corn; [5]): 0
- Plant response rating, Corn (corn; [6]): 0
- Plant response rating, Crabgrass, Large (crabgrass, large; [3]): 10
- Plant response rating, Crabgrass, Large (crabgrass, large; [4]): 10
- Plant response rating, Crabgrass, Large (crabgrass, large; [5]): 25
- Plant response rating, Crabgrass, Large (crabgrass, large; [6]): 60
- Plant response rating, Foxtail, Giant (foxtail, giant; [3]): 50
- Plant response rating, Foxtail, Giant (foxtail, giant; [4]): 35
- Plant response rating, Foxtail, Giant (foxtail, giant; [5]): 45
- Plant response rating, Foxtail, Giant (foxtail, giant; [6]): 50
- Plant response rating, Lambsquarters (lambsquarters; [3]): 0
- Plant response rating, Lambsquarters (lambsquarters; [4]): 25
- Plant response rating, Lambsquarters (lambsquarters; [5]): 0
- Plant response rating, Lambsquarters (lambsquarters; [6]): 0
- Plant response rating, Pigweed (pigweed; [3]): 0
- Plant response rating, Pigweed (pigweed; [4]): 0
- Plant response rating, Pigweed (pigweed; [5]): 5
- Plant response rating, Pigweed (pigweed; [6]): 30
- Plant response rating, Velvetleaf (velvetleaf; [3]): 0
- Plant response rating, Velvetleaf (velvetleaf; [4]): 0
- Plant response rating, Velvetleaf (velvetleaf; [5]): 5
- Plant response rating, Velvetleaf (velvetleaf; [6]): 5
